Source: ChEMBL document CHEMBL1201862, “PubChem BioAssay data set” (2004)
“And” between values parts separate entries of the source, which are not always exact repeats. Identical values can stand only once.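 Protocol summary: plate cells (96-well), add compound at 5 concentrations, incubate 48 h, interpolate endpoints linearly. GI50 is the concentration that inhibits growth by half.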 The source made the active and inactive calls. Rule as the data show it: active = GI50 up to about 1.1 µM and inactive = higher.

What was measured:
Assay in all cases: inhibition of tumour cell growth, NCI panel, 48 h
[1] = tested on: 786-0
[2] = tested on: A498
[3] = tested on: A549
[4] = tested on: ACHN
[5] = tested on: CAKI-1
[6] = tested on: CCRF-CEM
[7] = tested on: COLO 205
[8] = tested on: DLD-1
[9] = tested on: DMS-114
[10] = tested on: DMS-273
[11] = tested on: HCC 2998
[12] = tested on: HCT-116
[13] = tested on: HCT-15
[14] = tested on: HL-60
[15] = tested on: HOP-18
[16] = tested on: HOP-62
[17] = tested on: HOP-92
[18] = tested on: HT-29
[19] = tested on: IGROV-1
[20] = tested on: K562
[21] = tested on: KM-20L2
[22] = tested on: KM12
[23] = tested on: LOX IMVI
[24] = tested on: LXFL 529
[25] = tested on: M14
[26] = tested on: M19-MEL
[27] = tested on: MOLT-4
[28] = tested on: Malme-3M
[29] = tested on: NCI-H23
[30] = tested on: NCI-H460
[31] = tested on: NCI-H522
[32] = tested on: OVCAR-3
[33] = tested on: OVCAR-4
[34] = tested on: OVCAR-5
[35] = tested on: OVCAR-8
[36] = tested on: RPMI-8226
[37] = tested on: RXF 393
[38] = tested on: SF-268
[39] = tested on: SF-295
[40] = tested on: SF-539
[41] = tested on: SK-MEL-28
[42] = tested on: SK-MEL-2
[43] = tested on: SK-MEL-5
[44] = tested on: SK-OV-3
[45] = tested on: SN12C
[46] = tested on: SNB-19
[47] = tested on: SNB-75
[48] = tested on: SR
[49] = tested on: SW-620
[50] = tested on: TK-10
[51] = tested on: U-251
[52] = tested on: UACC-62
[53] = tested on: UO-31
[54] = tested on: EKVX
[55] = tested on: NCI-H226
[56] = tested on: SNB-78
[57] = tested on: UACC-257

## ClCCCN1CCCCC1CCl (stereo unspecified)
[1]
  GI50: 72.1 µM (inactive)
[2]
  GI50: > 100 µM (inactive)
[3]
  GI50: > 100 µM (inactive)
[4]
  GI50: 48.6 µM (inactive)
[5]
  GI50: 26.7 µM (inactive)
[6]
  GI50: 20.9 µM (inactive)
[7]
  GI50: > 100 µM (inactive)
[8]
  GI50: > 100 µM (inactive)
[9]
  GI50: 83 µM (inactive)
[10]
  GI50: 62.2 µM (inactive)
[11]
  GI50: > 100 µM (inactive)
[12]
  GI50: > 100 µM (inactive)
[13]
  GI50: > 100 µM
[14]
  GI50: 52.7 µM (inactive)
[15]
  GI50: > 100 µM (inactive)
[16]
  GI50: 90.8 µM (inactive)
[17]
  GI50: > 100 µM (inactive)
[18]
  GI50: > 100 µM (inactive)
[19]
  GI50: > 100 µM (inactive)
[20]
  GI50: > 100 µM (inactive)
[21]
  GI50: > 100 µM (inactive)
[22]
  GI50: > 100 µM (inactive)
[23]
  GI50: > 100 µM (inactive)
[24]
  GI50: > 100 µM (inactive)
[25]
  GI50: > 100 µM (inactive)
[26]
  GI50: > 100 µM (inactive)
[27]
  GI50: 39.4 µM (inactive)
[28]
  GI50: > 100 µM (inactive)
[29]
  GI50: 65.3 µM (inactive)
[30]
  GI50: 10.2 µM (inactive)
[31]
  GI50: > 100 µM (inactive)
[32]
  GI50: > 100 µM (inactive)
[33]
  GI50: > 100 µM (inactive)
[34]
  GI50: > 100 µM (inactive)
[35]
  GI50: > 100 µM (inactive)
[36]
  GI50: > 100 µM (inactive)
[37]
  GI50: > 100 µM (inactive)
[38]
  GI50: 53.2 µM (inactive)
[39]
  GI50: 70.1 µM (inactive)
[40]
  GI50: > 100 µM (inactive)
[41]
  GI50: > 100 µM (inactive)
[42]
  GI50: > 100 µM (inactive)
[43]
  GI50: > 100 µM (inactive)
[44]
  GI50: > 100 µM (inactive)
[45]
  GI50: > 100 µM (inactive)
[46]
  GI50: > 100 µM (inactive)
[47]
  GI50: 68.4 µM (inactive)
[48]
  GI50: 24.8 µM (inactive)
[49]
  GI50: > 100 µM (inactive)
[50]
  GI50: > 100 µM (inactive)
[51]
  GI50: > 100 µM (inactive)
[52]
  GI50: 43.7 µM (inactive)
[53]
  GI50: 92.7 µM (inactive)

## CCCCCC#COC1CC(C)CC[C@@H]1C(C)C (stereo partly specified)
[1]
  GI50: > 100 µM (inactive)
[3]
  GI50: 56.5 µM (inactive)
[4]
  GI50: 78.2 µM (inactive)
[5]
  GI50: 50.8 µM (inactive)
[6]
  GI50: 15.4 µM (inactive)
[7]
  GI50: > 100 µM (inactive)
[8]
  GI50: 41.3 µM (inactive)
[10]
  GI50: 65 µM (inactive)
[54]
  GI50: 42.7 µM (inactive)
[11]
  GI50: > 100 µM (inactive)
[12]
  GI50: 57.7 µM (inactive)
[13]
  GI50: > 100 µM
[14]
  GI50: 23 µM (inactive)
[15]
  GI50: > 100 µM (inactive)
[16]
  GI50: 47.9 µM (inactive)
[17]
  GI50: > 100 µM (inactive)
[18]
  GI50: 59.4 µM (inactive)
[19]
  GI50: 27.7 µM (inactive)
[20]
  GI50: 27.9 µM (inactive)
[21]
  GI50: 61.1 µM (inactive)
[22]
  GI50: 98.9 µM (inactive)
[23]
  GI50: 15.6 µM (inactive)
[24]
  GI50: 97.9 µM (inactive)
[25]
  GI50: > 100 µM (inactive)
[26]
  GI50: 48 µM (inactive)
[28]
  GI50: > 100 µM (inactive)
[55]
  GI50: > 100 µM (inactive)
[29]
  GI50: > 100 µM (inactive)
[30]
  GI50: 23.8 µM (inactive)
[31]
  GI50: 24.5 µM (inactive)
[32]
  GI50: > 100 µM (inactive)
[33]
  GI50: > 100 µM (inactive)
[34]
  GI50: 71.4 µM (inactive)
[35]
  GI50: > 100 µM (inactive)
[36]
  GI50: 26.4 µM (inactive)
[37]
  GI50: 36.3 µM (inactive)
[38]
  GI50: > 100 µM (inactive)
[39]
  GI50: 39.2 µM (inactive)
[40]
  GI50: > 100 µM (inactive)
[41]
  GI50: > 100 µM (inactive)
[42]
  GI50: > 100 µM (inactive)
[43]
  GI50: > 100 µM (inactive)
[44]
  GI50: > 100 µM (inactive)
[45]
  GI50: > 100 µM (inactive)
[46]
  GI50: 58.1 µM (inactive)
[47]
  GI50: 75.9 µM (inactive)
[56]
  GI50: > 100 µM (inactive)
[49]
  GI50: 18.5 µM (inactive)
[50]
  GI50: > 100 µM (inactive)
[51]
  GI50: 42.3 µM (inactive)
[57]
  GI50: 46.2 µM (inactive)
[52]
  GI50: 62.7 µM (inactive)
[53]
  GI50: 50.4 µM (inactive)

## CC(C)S(=O)(=O)n1c(N)nc2ccc(/C(=N/O)c3ccccc3)cc21 [ENVIROXIME]
[1]
  GI50: 40.3 µM (inactive)
[2]
  GI50: 8.32 µM (inactive)
[3]
  GI50: 14.2 µM (inactive)
[4]
  GI50: 13.7 µM (inactive)
[5]
  GI50: 14.2 µM (inactive)
[6]
  GI50: 10.6 µM (inactive)
[7]
  GI50: 17.5 µM (inactive)
[8]
  GI50: 26.2 µM (inactive)
[9]
  GI50: 16.9 µM (inactive)
[10]
  GI50: 31.4 µM (inactive)
[54]
  GI50: 16.4 µM (inactive)
[11]
  GI50: 22 µM (inactive)
[12]
  GI50: 18.6 µM (inactive)
[13]
  GI50: 23.4 µM
[14]
  GI50: 12.2 µM (inactive)
[16]
  GI50: 13.9 µM (inactive)
[17]
  GI50: 3.61 µM (inactive)
[18]
  GI50: 16.9 µM (inactive)
[19]
  GI50: 19 µM (inactive)
[20]
  GI50: 27.2 µM (inactive)
[21]
  GI50: 16 µM (inactive)
[22]
  GI50: 20.6 µM (inactive)
[24]
  GI50: 41.4 µM (inactive)
[25]
  GI50: 17.9 µM (inactive)
[26]
  GI50: 34 µM (inactive)
[27]
  GI50: 14 µM (inactive)
[28]
  GI50: 45.4 µM (inactive)
[55]
  GI50: 4.63 µM (inactive)
[29]
  GI50: 21.8 µM (inactive)
[30]
  GI50: 26.1 µM (inactive)
[31]
  GI50: 17.2 µM (inactive)
[32]
  GI50: 18.6 µM (inactive)
[33]
  GI50: 23.5 µM (inactive)
[34]
  GI50: 21 µM (inactive)
[35]
  GI50: 30.3 µM (inactive)
[36]
  GI50: 10.3 µM (inactive)
[37]
  GI50: 11.4 µM (inactive)
[38]
  GI50: 27.7 µM (inactive)
[39]
  GI50: 18.2 µM (inactive)
[40]
  GI50: 15 µM (inactive)
[41]
  GI50: 36.1 µM (inactive)
[42]
  GI50: 20.9 µM (inactive)
[44]
  GI50: 22.4 µM (inactive)
[45]
  GI50: 27.8 µM (inactive)
[46]
  GI50: 30 µM (inactive)
[47]
  GI50: 3.26 µM (inactive)
[56]
  GI50: 36.4 µM (inactive)
[48]
  GI50: 0.223 µM (active)
[49]
  GI50: 21.8 µM (inactive)
[50]
  GI50: 32.4 µM (inactive)
[51]
  GI50: 39.3 µM (inactive)
[57]
  GI50: 44.5 µM (inactive)
[52]
  GI50: 23.1 µM (inactive)
[53]
  GI50: 17.3 µM (inactive)

## CCCSc1nc(-c2ccc(OC)cc2)c(C#N)c(=O)n1C1OC(COC(C)=O)C(OC(C)=O)C(OC(C)=O)C1OC(C)=O (stereo unspecified)
[4]
  GI50: > 100 µM (inactive)
[6]
  GI50: > 100 µM (inactive)
[7]
  GI50: > 100 µM (inactive)
[9]
  GI50: > 100 µM (inactive)
[14]
  GI50: > 100 µM (inactive)
[18]
  GI50: > 100 µM (inactive) and 65.9 µM (inactive)
[20]
  GI50: > 100 µM (inactive)
[21]
  GI50: > 100 µM (inactive) and 54.6 µM (inactive)
[22]
  GI50: > 100 µM (inactive)
[24]
  GI50: > 100 µM (inactive)
[26]
  GI50: > 100 µM (inactive)
[27]
  GI50: > 100 µM (inactive)
[29]
  GI50: > 100 µM (inactive)
[30]
  GI50: > 100 µM (inactive)
[31]
  GI50: > 100 µM (inactive)
[33]
  GI50: > 100 µM (inactive)
[36]
  GI50: > 100 µM (inactive)
[38]
  GI50: > 100 µM (inactive)
[40]
  GI50: > 100 µM (inactive)
[41]
  GI50: > 100 µM (inactive)
[42]
  GI50: > 100 µM (inactive)
[44]
  GI50: > 100 µM (inactive)
[47]
  GI50: 42.3 µM (inactive)
[56]
  GI50: 99.3 µM (inactive)
[48]
  GI50: > 100 µM (inactive)
[52]
  GI50: > 100 µM (inactive)
